How the values were obtained:
Phosphodiesterase 4 = Phosphodiesterase 4 (Homo sapiens, UniProt P27815+Q08499+Q07343+Q08493); assay: Inhibitory activity on human eosinophil phosphodiesterase 4.; format: protein assay
U-937 = assay: Arbitary maximal response for cAMP elevation from baseline level was evaluated in Human U-937 cells; format: functional, cell-based
Monkey [1] = assay: Percent Eosinophil inhibition in monkeys at 10 mg/kg oral dose; format: functional; conditions: Cercopithecidae, in Primates
[2] = Compound tested for plasma levels in monkeys dosed at 10 mg/kg, po; format: ADME, organism-based; design: dose 10 mg/kg, route oral; conditions: monkey, in vivo, read-out: Plasma level
Monkey [3] = assay: Percent cytokine TNF inhibition in monkeys at 10 mg/kg oral dose; format: functional; conditions: Cercopithecidae, in Primates
Monkey [4] = assay: Percent cytokine IL-8 inhibition in monkeys at 10 mg/kg oral dose; format: functional; conditions: Cercopithecidae, in Primates
Cavia porcellus = assay: Effect on Aerosolized Antigen Induced Airway Obstruction (AAIAO) in guinea pig after oral dose; format: functional
[5] = target: cGMP-specific 3',5'-cyclic phosphodiesterase (Homo sapiens) (UniProt O76074); assay: Inhibition of Phosphodiesterase 5 from human corpus cavernosum at 1 uM
[6] = target: Phosphodiesterase 1 (Homo sapiens) (UniProt P54750+Q01064+Q14123); assay: Inhibition of Phosphodiesterase 1 from human cardiac ventricle at 10 uM; format: protein assay
[7] = target: Phosphodiesterase 3 (Homo sapiens) (UniProt Q14432+Q13370); assay: Inhibition of PDE3 from human heart at 100 uM; format: protein assay
[8] = target: cGMP-specific 3',5'-cyclic phosphodiesterase (Homo sapiens) (UniProt O76074); assay: Inhibition of Phosphodiesterase 5 from human corpus cavernosum at 10 uM
Monkey [9] = assay: Percent cytokine inhibition in monkeys at 10 mg/kg oral dose; format: functional; conditions: Cercopithecidae, in Primates

IC50 (Phosphodiesterase 4) | EC50 (U-937) | SMILES | further results
1080 nM | 3210 nM | CCc1nn(-c2ccc(F)cc2)c2c1CCN(c1ccccc1OC)C2=O | 
460 nM | 5270 nM | CCc1nn(C2CCS(=O)(=O)C2)c2c1CCN(c1cccc(OC)c1)C2=O (stereo not drawn) | 
84900 nM | 11000 nM | CCCc1nn(-c2ccc(F)cc2)c2c1CCN(c1ccc(OC)cc1)C2=O | 
270 nM | 780 nM | CCc1nn(-c2ccc(F)cc2)c2c1CCN(c1cccc(C)c1)C2=O | 
160 nM | 17 nM | CCc1nn(C2CCCC2)c2c1CCN(c1cccnc1)C2=O | 
490 nM |  | CCc1nn(-c2ccc(F)cc2)c2c1CCN(c1cccc(OC)c1)C2=O | 
34 nM | 330 nM | CCc1nn(C2CCCC2)c2c1CCN(c1cccc(OC)c1)C2=O | 
 | 1230 nM | COc1ccc(C2CNC(=O)C2)cc1OC1CCCC1 (stereo not drawn) [ROLIPRAM] | inhibition in vivo at 10 mg/kg (Monkey [1]): 49.4%; concentration [2]: 910 nM; inhibition in vivo at 10 mg/kg (Monkey [3]): 33.4%; inhibition in vivo at 10 mg/kg (Monkey [4]): 84%; ED50 (Cavia porcellus): 0.6 mg/kg
160 nM | 70 nM | CCc1nn(C2CCCC2)c2c1CCN(c1ccccc1)C2=O | 
660 nM | 36 nM | CCc1nn(C2CCCC2)c2c1CCN(c1ccsc1)C2=O | 
 | 3630 nM | COc1ccc([C@]2(C#N)CC[C@@H](C(=O)O)CC2)cc1OC1CCCC1 [CILOMILAST] | 
1640 nM | 880 nM | CCc1nn(-c2ccc(F)cc2)c2c1CCN(c1ccccc1)C2=O | inhibition [5]: 1%; inhibition [6]: 2%; ED50 (Cavia porcellus): 4.3 mg/kg; inhibition [7]: 33%; inhibition [8]: 50%
890 nM |  | CCc1nn(-c2ccc(F)cc2)c2c1CCN(c1ccccc1C)C2=O | 
2240 nM | 500 nM | CCc1nn(-c2ccc(F)cc2)c2c1CCN(c1ccc(C)cc1)C2=O | 
670 nM | 290 nM | COc1ccc([C@H](Cc2ccncc2)c2ccccc2)cc1OC1CCCC1 [CDP840] | 
1640 nM |  | CCc1nn(C2CCCC2)c2c1CCN(c1ccccn1)C2=O | 
39 nM | 41 nM | CCc1nn(C2CCCC2)c2c1CCN(c1cccc(Cl)c1)C2=O | 
84700 nM | 13000 nM | CCCCc1nn(-c2ccc(F)cc2)c2c1CCN(c1ccccc1)C2=O | 
63 nM | 1 nM | CCc1nn(C2CCCC2)c2c1CCN(c1cccs1)C2=O | 
150 nM | 520 nM | CCc1nn(C2CCC2)c2c1CCN(c1cccc(OC)c1)C2=O | 
6040 nM | 6250 nM | CCc1nn(-c2ccc(F)cc2)c2c1CCN(c1ccc(OC)cc1)C2=O | 
440 nM | 330 nM | CCc1nn(C2CCCC2)c2c1CCN(c1ccccc1C)C2=O | inhibition [5]: 7%; inhibition in vivo at 10 mg/kg (Monkey [1]): 55.2%; inhibition in vivo at 10 mg/kg (Monkey [9]): 82.1%; concentration [2]: 280 nM; inhibition [6]: 8%; ED50 (Cavia porcellus): 2 mg/kg; inhibition [7]: 9%; inhibition [8]: 21%
15700 nM |  | COc1ccc(N2CCc3c(C)nn(-c4ccc(F)cc4)c3C2=O)cc1 | 
48 nM | 980 nM | CCc1nn(C2CCCCC2)c2c1CCN(c1cccc(OC)c1)C2=O | 
420 nM | 36 nM | CCc1nn(C2CCCC2)c2c1CCN(Cc1ccccc1)C2=O | 

SMILES | IC50 (Phosphodiesterase 4) | EC50 (U-937) | further results
COc1ccc(C(=O)Nc2c(Cl)cncc2Cl)cc1OC1CCCC1 |  | 40 nM | 
